ChEMBL document CHEMBL5512616, “pH regulators and their inhibitors in tumor microenvironment” (Eur J Med Chem, 2024)
In brackets after ≈: the same amount, converted by molar mass.

Key:
[1] = biological target: T1, Carbonic anhydrase 2 (Homo sapiens, UniProt P00918)
[2] = biological target: T2, Carbonic anhydrase 9 (Homo sapiens, UniProt Q16790)
[3] = system: MCF7; experiment: cells; settings: Homo sapiens, MCF7, 96 h
[4] = system: MCF7; experiment: cells; settings: Homo sapiens, MCF7, 72 h
[5] = biological target: T2, Carbonic anhydrase 9; remark: listed apart in the source
[6] = system: MCF7; experiment: cells; settings: Homo sapiens, MCF7, 72 h; remark: listed apart in the source
[7] = biological target: 72 kDa type IV collagenase (Homo sapiens, UniProt P08253); experiment: Inhibition of MMP2 (unknown origin)
72 kDa type IV collagenase, sequence (P08253 whole entry): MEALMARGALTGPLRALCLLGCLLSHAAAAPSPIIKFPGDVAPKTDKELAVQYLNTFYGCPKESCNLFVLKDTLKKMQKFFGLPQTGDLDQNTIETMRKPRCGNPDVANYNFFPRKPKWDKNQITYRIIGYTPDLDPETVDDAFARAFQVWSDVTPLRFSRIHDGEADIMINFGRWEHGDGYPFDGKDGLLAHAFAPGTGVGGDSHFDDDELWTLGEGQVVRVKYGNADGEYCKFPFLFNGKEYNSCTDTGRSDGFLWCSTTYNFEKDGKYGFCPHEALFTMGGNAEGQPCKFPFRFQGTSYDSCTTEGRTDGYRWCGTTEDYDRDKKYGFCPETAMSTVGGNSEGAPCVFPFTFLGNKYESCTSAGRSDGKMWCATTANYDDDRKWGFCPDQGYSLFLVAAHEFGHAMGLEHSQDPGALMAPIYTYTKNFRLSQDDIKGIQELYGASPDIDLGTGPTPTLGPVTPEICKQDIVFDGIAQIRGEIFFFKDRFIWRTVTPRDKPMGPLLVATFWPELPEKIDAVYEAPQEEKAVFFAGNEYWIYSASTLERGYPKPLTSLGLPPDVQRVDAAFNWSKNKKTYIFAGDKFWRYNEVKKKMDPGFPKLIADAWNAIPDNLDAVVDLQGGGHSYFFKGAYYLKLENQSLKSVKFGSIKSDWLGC

[8] = biological target: T2, Carbonic anhydrase 9; remark: listed apart in the source
[9] = system: KB; experiment: cells; settings: Homo sapiens
[10] = system: BT-549; experiment: cells; settings: Homo sapiens
[11] = system: SK-MEL; experiment: cells; settings: Homo sapiens
[12] = system: SK-OV-3; experiment: cells; settings: Homo sapiens
[13] = biological target: T1, Carbonic anhydrase 2; remark: listed apart in the source
[14] = biological target: Carbonic anhydrase 1 (Homo sapiens, UniProt P00915)
Carbonic anhydrase 1, sequence (P00915 whole entry): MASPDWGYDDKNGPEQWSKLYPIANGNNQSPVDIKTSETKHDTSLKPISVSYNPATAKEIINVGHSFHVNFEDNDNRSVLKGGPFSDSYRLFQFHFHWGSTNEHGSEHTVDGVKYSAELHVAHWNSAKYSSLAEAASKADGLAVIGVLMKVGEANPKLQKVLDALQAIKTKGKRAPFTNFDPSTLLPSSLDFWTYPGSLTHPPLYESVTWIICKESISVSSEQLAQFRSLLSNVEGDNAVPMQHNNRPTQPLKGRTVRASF

[15] = biological target: T2, Carbonic anhydrase 9; remark: listed apart in the source
[16] = biological target: T1, Carbonic anhydrase 2; remark: listed apart in the source
[17] = biological target: T2, Carbonic anhydrase 9; remark: listed apart in the source
[18] = biological target: T1, Carbonic anhydrase 2; remark: listed apart in the source
[19] = biological target: T2, Carbonic anhydrase 9; remark: listed apart in the source
[20] = biological target: T3, Monocarboxylate transporter 4 (Homo sapiens, UniProt O15427)
T3 sequence (O15427 whole entry): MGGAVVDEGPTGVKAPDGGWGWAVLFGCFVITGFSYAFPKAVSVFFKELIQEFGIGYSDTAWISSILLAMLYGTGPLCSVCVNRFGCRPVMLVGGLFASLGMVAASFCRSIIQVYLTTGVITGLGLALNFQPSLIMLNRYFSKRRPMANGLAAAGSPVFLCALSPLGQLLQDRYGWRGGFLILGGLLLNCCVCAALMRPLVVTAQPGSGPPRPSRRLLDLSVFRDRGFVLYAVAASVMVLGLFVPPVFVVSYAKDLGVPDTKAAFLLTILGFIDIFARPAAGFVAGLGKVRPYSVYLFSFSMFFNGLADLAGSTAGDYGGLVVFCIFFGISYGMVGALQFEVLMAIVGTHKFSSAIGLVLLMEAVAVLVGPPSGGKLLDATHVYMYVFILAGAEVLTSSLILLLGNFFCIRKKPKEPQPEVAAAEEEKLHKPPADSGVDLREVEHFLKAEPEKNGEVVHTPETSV

[21] = biological target: T4, Monocarboxylate transporter 1 (Homo sapiens, UniProt P53985)
T4 sequence (P53985 whole entry): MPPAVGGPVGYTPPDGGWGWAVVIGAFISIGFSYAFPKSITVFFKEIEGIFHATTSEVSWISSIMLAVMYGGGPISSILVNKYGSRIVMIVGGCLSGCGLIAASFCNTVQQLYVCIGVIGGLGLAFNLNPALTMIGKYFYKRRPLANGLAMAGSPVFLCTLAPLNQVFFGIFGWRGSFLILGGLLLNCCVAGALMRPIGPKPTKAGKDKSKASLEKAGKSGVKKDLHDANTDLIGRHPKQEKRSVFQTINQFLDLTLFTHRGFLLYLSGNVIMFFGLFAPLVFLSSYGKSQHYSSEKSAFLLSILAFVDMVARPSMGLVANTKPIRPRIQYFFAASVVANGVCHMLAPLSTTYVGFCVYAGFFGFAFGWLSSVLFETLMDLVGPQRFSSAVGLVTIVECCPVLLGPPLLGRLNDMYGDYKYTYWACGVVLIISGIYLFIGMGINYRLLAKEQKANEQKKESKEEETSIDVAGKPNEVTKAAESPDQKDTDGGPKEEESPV

CC(C)n1nc(C(=O)Nc2ccc3c(c2)C=CS(=O)(=O)O3)c2ccccc21
Ki [1]: > 10 µM | Ki [2]: 215 nM

C=C(C)[C@@H]1CC[C@]2(C(=O)O)CC[C@]3(C)[C@H](CC[C@@H]4[C@@]5(C)CC[C@H](O)C(C)(C)[C@@H]5CC[C@]43C)[C@@H]12 [BETULINIC ACID]
IC50 [3]: 14 µM | IC50 [4]: 16.4 µM

C=C(C)[C@@H]1CC[C@]2(COS(N)(=O)=O)CC[C@]3(C)[C@H](CC[C@@H]4[C@@]5(C)CC[C@H](OC(C)=O)C(C)(C)[C@@H]5CC[C@]43C)[C@@H]12
IC50 [3]: 7.02 µM | Ki [5]: 1.25 nM | IC50 [6]: 11.1 µM

N[C@H](CNC(=O)P(=O)(O)O)CNS(=O)(=O)c1ccc(Oc2ccccc2)cc1
IC50 [7]: 15 µM | IC50 [8]: 6.22 µM

COc1cc(/C=C/C(=O)O)ccc1OCc1cn(-c2cccc([N+](=O)[O-])c2)nn1
IC50 [9]: 8 µg/mL (≈ 20.2 µM) | IC50 [10]: 9.4 µg/mL (≈ 23.7 µM) | IC50 [11]: 9 µg/mL (≈ 22.7 µM) | IC50 [12]: > 10 µg/mL

NS(=O)(=O)c1ccc(N=C2C(=O)Nc3ccccc32)cc1
Ki [13]: 33 nM | IC50 [14]: 65 nM | Ki [15]: 6.5 nM

CC(C)(O)[C@@H](O)COc1c2occc2cc2ccc(=O)oc12
Ki [16]: > 10 µM | Ki [17]: 27.5 nM | Ki [18]: > 10 µM | Ki [19]: 27.5 nM

CCOC(=O)Oc1c(OC)cc(C(=O)O[C@@H]2C[C@@H]3CN4CCc5c([nH]c6cc(OC)ccc56)[C@H]4C[C@@H]3[C@H](C(=O)OC)[C@H]2OC)cc1OC [SYROSINGOPINE]
IC50 [20]: 40 nM | IC50 [21]: 2500 nM
